Measured values taken from ChEMBL document CHEMBL1201862, “PubChem BioAssay data set” (2004).
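Cells were grown in 96-well plates and exposed to each compound for 48 hours at five concentrations; endpoints were interpolated linearly between bracketing concentrations, or set to the highest concentration if not reached. At the GI50, growth is halved.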 The source made the active and inactive calls. No stated cut-off is given here; in the data, active = GI50 up to about 1.1 µM and inactive = higher.

Legend:
Experiment in all cases: inhibition of tumour cell growth, NCI panel, 48 h
[1] = test system: UACC-257
[2] = test system: SK-MEL-5
[3] = test system: OVCAR-3
[4] = test system: SF-295
[5] = test system: SN12C
[6] = test system: SK-MEL-28
[7] = test system: HCT-116
[8] = test system: T47D
[9] = test system: Hs-578T
[10] = test system: DU-145
[11] = test system: SK-MEL-2
[12] = test system: BT-549
[13] = test system: CCRF-CEM
[14] = test system: TK-10
[15] = test system: OVCAR-5
[16] = test system: NCI-H522
[17] = test system: PC-3
[18] = test system: SNB-75
[19] = test system: MDA-MB-231
[20] = test system: A498
[21] = test system: IGROV-1
[22] = test system: UO-31
[23] = test system: UACC-62
[24] = test system: HOP-62
[25] = test system: Malme-3M
[26] = test system: HL-60
[27] = test system: KM12
[28] = test system: K562
[29] = test system: COLO 205
[30] = test system: HT-29
[31] = test system: SF-539
[32] = test system: A549
[33] = test system: EKVX
[34] = test system: HCT-15
[35] = test system: SW-620
[36] = test system: RXF 393
[37] = test system: SR
[38] = test system: NCI-H226
[39] = test system: SF-268
[40] = test system: NCI/ADR-RES
[41] = test system: OVCAR-8
[42] = test system: MOLT-4
[43] = test system: LOX IMVI
[44] = test system: 786-0
[45] = test system: M14
[46] = test system: SNB-19
[47] = test system: RPMI-8226
[48] = test system: HOP-92
[49] = test system: NCI-H460
[50] = test system: MCF7
[51] = test system: MDA-N
[52] = test system: ACHN
[53] = test system: OVCAR-4
[54] = test system: CAKI-1
[55] = test system: NCI-H23
[56] = test system: U-251
[57] = test system: MDA-MB-435
[58] = test system: HCC 2998
[59] = test system: SK-OV-3

SMILES: O=C1c2ccccc2C(=O)N1CCCSc1ccccc1
- GI50 [1]: 39.7 µM (inactive)
- GI50 [2]: 32.7 µM (inactive)
- GI50 [3]: 28.8 µM (inactive)
- GI50 [4]: 22.6 µM (inactive)
- GI50 [5]: 71.3 µM (inactive)
- GI50 [6]: > 100 µM (inactive)
- GI50 [7]: 94.2 µM (inactive)
- GI50 [8]: 31.3 µM (inactive)
- GI50 [9]: > 100 µM (inactive)
- GI50 [10]: > 100 µM (inactive)
- GI50 [11]: > 100 µM (inactive)
- GI50 [12]: > 100 µM (inactive)
- GI50 [13]: 38.5 µM (inactive)
- GI50 [14]: > 100 µM (inactive)
- GI50 [15]: > 100 µM (inactive)
- GI50 [16]: 66.8 µM (inactive)
- GI50 [17]: 92 µM (inactive)
- GI50 [18]: 64.7 µM (inactive)
- GI50 [19]: > 100 µM (inactive)
- GI50 [20]: 33 µM (inactive)
- GI50 [21]: 93.8 µM (inactive)
- GI50 [22]: 60.5 µM (inactive)
- GI50 [23]: 71.6 µM (inactive)
- GI50 [24]: > 100 µM (inactive)
- GI50 [25]: > 100 µM (inactive)
- GI50 [26]: 75.7 µM (inactive)
- GI50 [27]: 94.4 µM (inactive)
- GI50 [28]: 77.1 µM (inactive)
- GI50 [29]: 66.1 µM (inactive)
- GI50 [30]: 31.2 µM (inactive)
- GI50 [31]: > 100 µM (inactive)
- GI50 [32]: 76.2 µM (inactive)
- GI50 [33]: 57.1 µM (inactive)
- GI50 [34]: 92.7 µM
- GI50 [35]: > 100 µM (inactive)
- GI50 [36]: 63.7 µM (inactive)
- GI50 [37]: 31.8 µM (inactive)
- GI50 [38]: > 100 µM (inactive)
- GI50 [39]: > 100 µM (inactive)
- GI50 [40]: 52 µM (inactive)
- GI50 [41]: > 100 µM (inactive)
- GI50 [42]: 31.8 µM (inactive)
- GI50 [43]: > 100 µM (inactive)
- GI50 [44]: > 100 µM (inactive)
- GI50 [45]: 66.7 µM (inactive)
- GI50 [46]: > 100 µM (inactive)
- GI50 [47]: 42.8 µM (inactive)
- GI50 [48]: > 100 µM (inactive)
- GI50 [49]: 90.6 µM (inactive)
- GI50 [50]: 78.3 µM (inactive)
- GI50 [51]: 91.4 µM (inactive)
- GI50 [52]: > 100 µM (inactive)
- GI50 [53]: 71.9 µM (inactive)
- GI50 [54]: 93.1 µM (inactive)
- GI50 [55]: 86.7 µM (inactive)
- GI50 [56]: 91.4 µM (inactive)
- GI50 [57]: > 100 µM (inactive)
- GI50 [58]: 25.1 µM (inactive)
- GI50 [59]: > 100 µM (inactive)

SMILES: COC(=O)CC1C(C)(C)C(=O)C2CC3=C4CC(=O)OC(c5ccoc5)C4(C)CCC3C1(C)C2=O (stereo unspecified)
- GI50 [1]: > 100 µM (inactive)
- GI50 [2]: > 100 µM (inactive)
- GI50 [3]: > 100 µM (inactive)
- GI50 [4]: > 100 µM (inactive)
- GI50 [5]: > 100 µM (inactive)
- GI50 [6]: > 100 µM (inactive)
- GI50 [7]: > 100 µM (inactive)
- GI50 [8]: > 100 µM (inactive)
- GI50 [9]: > 100 µM (inactive)
- GI50 [10]: > 100 µM (inactive)
- GI50 [11]: > 100 µM (inactive)
- GI50 [12]: > 100 µM (inactive)
- GI50 [13]: > 100 µM (inactive)
- GI50 [14]: > 100 µM (inactive)
- GI50 [15]: > 100 µM (inactive)
- GI50 [16]: > 100 µM (inactive)
- GI50 [17]: > 100 µM (inactive)
- GI50 [18]: > 100 µM (inactive)
- GI50 [19]: > 100 µM (inactive)
- GI50 [20]: > 100 µM (inactive)
- GI50 [21]: > 100 µM (inactive)
- GI50 [23]: > 100 µM (inactive)
- GI50 [24]: > 100 µM (inactive)
- GI50 [25]: > 100 µM (inactive)
- GI50 [26]: 44.4 µM (inactive)
- GI50 [27]: > 100 µM (inactive)
- GI50 [28]: > 100 µM (inactive)
- GI50 [29]: > 100 µM (inactive)
- GI50 [30]: > 100 µM (inactive)
- GI50 [31]: > 100 µM (inactive)
- GI50 [32]: > 100 µM (inactive)
- GI50 [33]: > 100 µM (inactive)
- GI50 [34]: > 100 µM
- GI50 [35]: > 100 µM (inactive)
- GI50 [36]: > 100 µM (inactive)
- GI50 [37]: > 100 µM (inactive)
- GI50 [38]: > 100 µM (inactive)
- GI50 [39]: > 100 µM (inactive)
- GI50 [40]: > 100 µM (inactive)
- GI50 [41]: > 100 µM (inactive)
- GI50 [42]: > 100 µM (inactive)
- GI50 [43]: > 100 µM (inactive)
- GI50 [44]: > 100 µM (inactive)
- GI50 [45]: > 100 µM (inactive)
- GI50 [46]: > 100 µM (inactive)
- GI50 [47]: > 100 µM (inactive)
- GI50 [48]: > 100 µM (inactive)
- GI50 [49]: > 100 µM (inactive)
- GI50 [50]: > 100 µM (inactive)
- GI50 [51]: > 100 µM (inactive)
- GI50 [52]: > 100 µM (inactive)
- GI50 [53]: > 100 µM (inactive)
- GI50 [54]: > 100 µM (inactive)
- GI50 [55]: > 100 µM (inactive)
- GI50 [56]: > 100 µM (inactive)
- GI50 [57]: > 100 µM (inactive)
- GI50 [58]: > 100 µM (inactive)
- GI50 [59]: > 100 µM (inactive)

SMILES: COc1ccc(/C=C(/C(=O)c2ccc(Cl)cc2)N2C=CC=CC2=C(C#N)C#N)cc1OC
- GI50 [1]: 6 µM (inactive)
- GI50 [2]: 9.25 µM (inactive)
- GI50 [3]: 3.72 µM (inactive)
- GI50 [4]: 28.5 µM (inactive)
- GI50 [5]: 17.4 µM (inactive)
- GI50 [6]: 3.4 µM (inactive)
- GI50 [7]: 2.06 µM (inactive)
- GI50 [8]: 4.06 µM (inactive)
- GI50 [9]: 1.66 µM (inactive)
- GI50 [10]: 13.7 µM (inactive)
- GI50 [11]: 15.3 µM (inactive)
- GI50 [12]: 7.85 µM (inactive)
- GI50 [13]: 0.115 µM (active)
- GI50 [14]: 6.32 µM (inactive)
- GI50 [15]: 16.2 µM (inactive)
- GI50 [16]: 0.243 µM (active)
- GI50 [17]: 2.74 µM (inactive)
- GI50 [18]: 6.62 µM (inactive)
- GI50 [19]: 6.24 µM (inactive)
- GI50 [20]: 14.9 µM (inactive)
- GI50 [21]: 5.09 µM (inactive)
- GI50 [22]: 1.5 µM (inactive)
- GI50 [23]: 14.9 µM (inactive)
- GI50 [24]: 20.5 µM (inactive)
- GI50 [25]: 0.914 µM (active)
- GI50 [26]: 2.37 µM (inactive)
- GI50 [27]: 19.1 µM (inactive)
- GI50 [28]: 0.698 µM (active)
- GI50 [29]: 1.58 µM (inactive)
- GI50 [30]: 5.01 µM (inactive)
- GI50 [31]: 3.92 µM (inactive)
- GI50 [32]: 14.4 µM (inactive)
- GI50 [33]: 2.75 µM (inactive)
- GI50 [34]: 2.17 µM
- GI50 [35]: 1.91 µM (inactive)
- GI50 [36]: 2.03 µM (inactive)
- GI50 [37]: 2.35 µM (inactive)
- GI50 [38]: 17.8 µM (inactive)
- GI50 [39]: 3.55 µM (inactive)
- GI50 [40]: 10.4 µM (inactive)
- GI50 [41]: 4.27 µM (inactive)
- GI50 [42]: 0.685 µM (active)
- GI50 [43]: 3.39 µM (inactive)
- GI50 [44]: 1.94 µM (inactive)
- GI50 [45]: 3.7 µM (inactive)
- GI50 [46]: 15.1 µM (inactive)
- GI50 [47]: 2.47 µM (inactive)
- GI50 [48]: 3.51 µM (inactive)
- GI50 [49]: 12.9 µM (inactive)
- GI50 [50]: 3.66 µM (inactive)
- GI50 [51]: 4.55 µM (inactive)
- GI50 [52]: 3.31 µM (inactive)
- GI50 [53]: 6.58 µM (inactive)
- GI50 [54]: 1.31 µM (inactive)
- GI50 [55]: 11.5 µM (inactive)
- GI50 [56]: 12.1 µM (inactive)
- GI50 [57]: 3.89 µM (inactive)
- GI50 [58]: 1.99 µM (inactive)
- GI50 [59]: 24.4 µM (inactive)
